{"source": "patent US8017649B2", "about": "“Flavonoid compounds and uses thereof” (Howard Florey Institute of Experimental Physiology and …, priority 2005, dated 2011)", "molecules": {"B1": {"name": "BuCHE: butyryl cholinesterase, esterase used to cleave the adipate (protein, UniProt P06276 29-602, looked up)", "Cholinesterase": "EDDIIIATKNGKVRGMNLTVFGGTVTAFLGIPYAQPPLGRLRFKKPQSLTKWSDIWNATKYANSCCQNIDQSFPGFHGSEMWNPNTDLSEDCLYLNVWIPAPKPKNATVLIWIYGGGFQTGTSSLHVYDGKFLARVERVIVVSMNYRVGALGFLALPGNPEAPGNMGLFDQQLALQWVQKNIAAFGGNPKSVTLFGESAGAASVSLHLLSPGSHSLFTRAILQSGSFNAPWAVTSLYEARNRTLNLAKLTGCSRENETEIIKCLRNKDPQEILLNEAFVVPYGTPLSVNFGPTVDGDFLTDMPDILLELGQFKKTQILVGVNKDEGTAFLVYGAPGFSKDNNSIITRKEFQEGLKIFFPGVSEFGKESILFHYTDWVDDQRPENYREALGDVVGDYNFICPALEFTKKFSEWGNNAFFYYFEHRSSKLPWPEWMGVMHGYEIEFVFGLPLERRDNYTKAEEILSRSIVKRWANFAKYGNPNETQNNSTSWPVFKSTEQKYLTLNTESTRIMTKLRAQQCRFWTSFFPKVLEMTGNIDEAEWEWKAGFHRWNNYMMDWKNQFNDYTSKKESCVGL"}}, "key": {"[1]": {"system": "endothelium intact aortic rings", "experiment": "Effect on ACh relaxation of precontracted rat aortic rings", "assay_type": "cell-based", "conditions": "substance alone", "method": "(§1) After wash out and re-equilibration for 30 min, the aortic rings were then submaximally precontracted with PE and U46619, which were used to produce an active tension of 45-60% of the KPSS-induced maximum contraction. When investigating the effects of the flavonoids, flavonol, flavone-3-hemiadipate (F3HA), 3′, 4′-dihydroxyflavone, 3′,4′-dihydroxyflavonol, 3′,4′-dihydroxyflavone-3-hemiadipate (DiOHF3HA), and flavone-3-phosphate (F3P) on vasorelaxant responses, rings were incubated with one of the compounds for 20 mins before they were precontracted submaximally, followed by a cumulative-concentration response curve to ACh (100 nM-10 μM) or SNP ([…]). In experiments using F3P 1000U/L phosphatase was used in some experiments to cleave the phosphate. Some experiments were conducted in the presence and absence of butyryl cholinesterase (BuCHE, 1000 U/L) to cleave the adipate in DiOHF3HA and F3HA."}, "[2]": {"system": "superoxide anions generated in rat aorta", "experiment": "Superoxide anion production in rat isolated aortic segments (lucigenin chemiluminescence, NADPH)", "assay_type": "cell-based", "conditions": "for superoxide levels: highest concentration tested (0.1 mM)", "method": "Superoxide anion production in rat isolated aortic segments was determined using lucigenin chemiluminescence. Aortic rings were prepared as described above and then placed in ice-cold Krebs-(N-[2-Hydroxyethyl]piperazine-N′-[2-ethanesulfonic acid] (HEPES buffer) (composition (mM); NaCl 99.0, KCl 4.7, KH2PO4 1.0, MgSO4·7H2O 1.2, D-glucose 11.0, NaHCO3 25.0, CaCl2·2H2O 2.5, Na-HEPES 20.0). Aortic rings were pre-incubated for 45 minutes at 37° C. with a pH 7.4, in Krebs-HEPES buffer containing diethylthiocarbamic acid (DETCA, 10^−3 M) to inactivate superoxide dismutase and β-nicotinamide adenine dinucleotide phosphate (NADPH, 10^−4 M) as a substrate for NADPH oxidase and either 3′,4′-dihydroxyflavonol (10^−4 M) as a positive control, vehicle, 3-hydroxyflavone-3-hemiadipate, 3′,4′-dihydroxy-3-hemiadipate, 3-hydroxyflavone-3-phosphate (10^−8-10^−4 M). Background photon emission was measured for 12 cycles in a 96-well Optiplate containing 0.3 ml per well of Krebs-HEPES buffer together with lucigenin (5×10^−5 M) and vehicle or flavonoid (10^−8-10^−4 M). Each cycle was counted every one minute. After background reading was completed the incubated aortic rings were transferred to the appropriate wells and photon emission was recounted as described above. The tissue was then placed in a 65° C. oven for 48 hours to allow superoxide production to be normalised to dry tissue weight.\nThe effects of vehicle, 3′,4′-dihydroxyflavone-3-hemiadipate (21) (DiOHF3HA, 10^−8 M-10^−4 M) and DiOHF (10^−4 M) in the presence and absence of Butyryl cholinesterase (BuCHE), 100, 300 and 1000 U/L) on the level of superoxide anions generated in rat isolated aortic segments in the presence of NADPH was expressed as a percentage of control. The method used was as described above except for the addition of the butyryl cholinesterase.\nThe effect of vehicle, 3-hydroxyflavone-3-phosphate (10^−8 to 10^−4 M) in the presence or absence of phosphatase (1000 U/L) on the level of superoxide anions generated in rat aorta in the presence of NADPH expressed as a percentage of control was determined as described above for the 3′,4′-dihydroxyflavone-3-hemiadipate."}, "[3]": {"system": "endothelium intact aortic rings", "experiment": "Ca2+-induced contraction of rat aortic rings in Ca2+-free high-K+ solution", "assay_type": "cell-based", "method": "To determine the effect of flavonoids on responses to the influx of extracellular Ca^2+, contractile responses to exogenous application of Ca^2+ were examined in the presence of flavonoids in Ca^2+-free high-K^+ solution (60 mM, KPSS). Aortic rings were initially equilibrated at a resting tension of 1 g in normal Ca^2+-free PSS for 45 minutes. The bath medium was then replaced with Ca^2+-free KPSS for 45 minutes to determine a reference contraction to Ca^2+ (3×10^−3 M). Following a 30 minute re-equilibration period with Ca^2+-free PSS, the cumulative contractile responses to Ca^2+ (10^−5−3×10^−3 M) were determined in KPSS in the presence of a range of concentrations (10^−8-10^−4 M) of vehicle, 3′,4′-dihydroxyflavonol, 3-hydroxyflavone-3-hemiadipate, 3′,4′-dihydroxy-3-hemiadipate, 3-hydroxyflavone-3-phosphate. A 20 minute incubation period was allowed for the flavonoids before examining the responses to Ca^2+.\nTo determine the effect of flavonoids on responses to the influx of extracellular Ca^2+, contractile responses to exogenous application of Ca^2+ were examined in the presence of flavonoids in Ca^2+-free high-K^+ solution (60 mM, K+-PSS). Aortic rings were initially equilibrated at a resting tension of 1 g in Ca^2+-free PSS for 45 minutes. The bath medium was then replaced with Ca^2+-free K+-PSS for 45 minutes to determine a reference contraction to added Ca^2+ (3 mM). Following a 30 minute re-equilibration period with Ca^2+-free PSS, the cumulative contractile responses to Ca^2+ (10^−5−3×10^−3 M) were determined in K^+ PSS in the presence of vehicle (0.1% DMSO), or a range of concentrations (10^−7-10^−4 M) of 3′-hydroxyflavonol, F3HA, DiOHF3HA or F3P. A 20 minute incubation period was allowed for the flavonoids before examining the responses to Ca^2+. Experiments were conducted in the presence and absence of BuCHE (1000 U/L) to cleave the adipate in F3HA and DiOHF3HA. In experiments using F3P, phosphatase (1000 U/L) was used in some experiments to cleave the phosphate."}, "aortic rings": {"system": "aortic rings", "experiment": "Effect on SNP relaxation of precontracted rat aortic rings", "assay_type": "cell-based", "conditions": "substance alone", "method": "as §1"}, "[4]": {"system": "rat aorta precontracted with PE", "experiment": "Direct relaxation of PE/U46619-precontracted rat aortic rings", "assay_type": "cell-based", "conditions": "substance alone", "method": "Following testing of endothelial integrity, rings were repeatedly washed and re-equilibrated for 30 minutes before the addition of PE (10^−8−2×10^−7 M) and 9,11-dideoxy-9α, 11α-epoxymethano-prostaglandin F2α (U46619, 10^−9-10^−8 M) to produce an active force in the range of 40-60% of KPSS-induced contraction. The level of precontraction was matched between the various groups by adjusting the concentrations of PE and U46619. Cumulative concentration-response curves in the range 10^−8-10^−4 M were conducted for 3′,4′-dihydroxyflavonol, 3-hydroxyflavone-3-hemiadipate, 3′,4′-dihydroxy-3-hemiadipate, 3-hydroxyflavone-3-phosphate.\nExperiments were conducted in the presence of an esterase, butyryl cholinesterase (BuCHE, 1000 U/L) for the hemiadipate derivates and a phosphatase 1000 U/L) in the case of the phosphate derivatives.\nFollowing testing of endothelial integrity, rings were repeatedly washed and re-equilibrated for 30 minutes before the addition of PE (10^−8−2×10^−7 M) and 9,11-dideoxy-9α, 11α-epoxymethano-prostaglandin F2α (U46619, 10^−9-10^−7 M) to produce an active force in the range of 40-60% of KPSS-induced contraction. Cumulative concentration-response curves in the range 10^−7-10^−4 M were conducted for vehicle, 3′-hydroxyflavonol, F3HA, DiOHF3HA, F3P. Experiments were conducted in the presence and absence of 1000 U/L BuCHE to cleave the adipate in F3HA and DiOHF3HA. In experiments using F3P 1000 U/L phosphatase was used in some experiments to cleave the phosphate."}, "anaesthetised rats": {"system": "anaesthetised rats", "experiment": "Arterial pressure and heart rate in anaesthetised rats after intravenous injection", "assay_type": "in vivo, rat", "conditions": "intravenous, anaesthetised rats", "method": "A unit dosage of an aqueous solution of 3-hydroxyflavone-3-hemiadipate (15) was administered to a group of male anesthetized Sprague Dawley rats intravenously and the blood pressure monitored over a period of time.\nMale Sprague-Dawley rats (250-350 g) were anaesthetised with pentobarbitone sodium (60 mg kg^−1, ip). The trachea was isolated and cannulated with polyethylene tracheal tube (I.D. 2.0 mm), and the rat was allowed to breathe spontaneously.\nThe right carotid artery was cannulated and connected with a heparinised saline filled cannula (O.D. 0.75, I.D, 0.58 mm) and connected to a pressure transducer. Mean and phasic arterial pressure were continuously measured and recorded on a polygraph. The heart rate, was derived from the phasic arterial pressure using a tachometer.\nDiOHF3HA ([…]) was injected intravenously, allowing at least 30 min between injections, and the peak changes in mean arterial pressure and heart rate measured. […] In a separate group of experiments ACh (0.3 mg/kg iv) and phenylephrine (PE, […]) were injected before and 30 minutes after DiOHF3HA (3 mg/kg iv), a time when arterial pressure and heart rate had returned to control levels. […]"}, "[5]": {"conditions": "substance alone, no added esterase/phosphatase, up to 10^−4 M, NADPH"}}, "note": "Entries after “also recorded” stand apart in the source; their conditions may differ."}
{"molecule": "O=c1c(O)c(-c2ccccc2)oc2ccccc12", "note": "[Flavonol, reference compound]", "values": [{"measurement": "effect on relaxant response to ACh", "setting": "[1]", "result": "did not affect"}, {"measurement": "superoxide levels", "setting": "[2]", "result": "36±3 % of control"}, {"measurement": "effect on superoxide generation", "setting": "[2]; [5]", "result": "concentration dependent decreases in superoxide levels"}, {"measurement": "effect on Ca^2+-induced contraction", "setting": "[3]; alone, over the concentration range tested", "result": "concentration dependent decreases in calcium-induced contraction"}, {"measurement": "effect on relaxant response to SNP", "setting": "aortic rings", "result": "did not affect"}]}
{"molecule": "O=c1cc(-c2ccc(O)c(O)c2)oc2ccccc12", "note": "[DiOHFne, 3′,4′-dihydroxyflavone, reference compound]", "values": [{"measurement": "direct relaxing effect on precontracted vessels", "setting": "[4]", "result": "concentration-dependent relaxation of rat aorta which was weaker than the effect of DiOHF"}, {"measurement": "superoxide levels", "setting": "[2]", "result": "36±3 % of control"}, {"measurement": "effect on superoxide generation", "setting": "[2]; [5]", "result": "concentration dependent decreases in superoxide levels"}]}
{"molecule": "O=C(O)CCCCC(=O)Oc1c(-c2ccccc2)oc2ccccc2c1=O", "note": "[F3HA, Flavone-3-hemiadipate]", "values": [{"measurement": "change in mean arterial pressure (MAP)", "setting": "anaesthetised rats", "result": "significant reduction in the blood pressure"}, {"measurement": "effect on superoxide generation", "setting": "[2]; in the presence of cleaving enzyme (BuCHE for hemiadipates, phosphatase for phosphate, 1000 U/L)", "result": "concentration dependent increase in the inhibitory effect"}, {"measurement": "effect on superoxide generation", "setting": "[2]; in the presence of cleaving enzyme (BuCHE for hemiadipates, phosphatase for phosphate, 1000 U/L), listed as flavone-3-hemiadipate", "result": "concentration-dependent inhibitory effect"}, {"measurement": "effect on superoxide generation", "setting": "[2]; [5]", "result": "no inhibitory effect on superoxide generation; also recorded: no antioxidant or vascular activity"}, {"measurement": "effect on superoxide generation", "setting": "[2]; substance alone, no added esterase/phosphatase, up to 10^−4 M, NADPH, listed as Flavone-3-hemiadipate", "result": "no effect on the superoxide production"}, {"measurement": "effect on superoxide generation", "setting": "[2]; substance alone, no added esterase/phosphatase, up to 10^−4 M, NADPH, listed as flavone-3-hemiadipate", "result": "no effect on the superoxide production at any concentration"}, {"measurement": "effect on Ca^2+-induced contraction", "setting": "[3]; alone, highest concentration 10^−4 M", "result": "only inhibited contractile responses to increasing concentrations of extracellular calcium at the highest concentration tested"}, {"measurement": "effect on Ca^2+-induced contraction", "setting": "[3]; alone, highest concentration 10^−4 M, listed as flavone-3-hemiadipate", "result": "some inhibitory effect"}, {"measurement": "effect on Ca^2+-induced contraction", "setting": "[3]; alone, lower concentrations 10^−8 to 10^−5 M", "result": "did not effect Ca^2+ contraction"}, {"measurement": "effect on Ca^2+-induced contraction", "setting": "[3]; in the presence of BuCHE or phosphatase (1000 U/L)", "result": "inhibit calcium-induced contraction"}]}
{"molecule": "B1", "values": [{"measurement": "direct relaxing effect on precontracted vessels", "setting": "[4]", "result": "no effect on PE precontracted vessels"}]}
